Laboratory results published in DBAASP.
Converted amounts (≈) assume the structure as drawn. “And” between values parts separate entries of the source, which are not always exact repeats. Equal entries are not always repeated. Values belong to the compound of their own block, whether it stands above or below them.

How the values were obtained:
Experiment in all cases: ≥ marks a high value that may be exact or a test limit, other limits are often not marked, values filed in µg/mL are converted to µM
[1] = test system: Escherichia coli ATCC 25922
[2] = test system: Staphylococcus epidermidis ATCC 12228
[3] = test system: Salmonella enterica subsp. enterica serovar Typhi DMST 22842
[4] = test system: Staphylococcus aureus ATCC 25923
[5] = test system: Enterococcus faecium ATCC 700221
[6] = test system: Bacillus subtilis DELTA
[7] = test system: Zymomonas mobilis ATCC 10988
[8] = test system: Candida albicans ATCC 200955
[9] = test system: Escherichia coli DH5alpha
[10] = test system: Staphylococcus aureus ATCC 33591
[11] = test system: Pseudomonas aeruginosa ATCC 27853
[12] = test system: Candida parapsilosis
[13] = test system: Escherichia coli 44102
[14] = test system: Staphylococcus aureus 22401
[15] = test system: Klebsiella pneumoniae ATCC 13883
[16] = test system: Listeria monocytogenes ATCC 35152
[17] = test system: Micrococcus luteus
[18] = test system: Edwardsiella tarda TX1
[19] = test system: Vibrio anguillarum C312
[20] = test system: Staphylococcus aureus
[21] = test system: Erwinia amylovora PMV 6076
[22] = test system: Pseudomonas syringae pv. syringae EPS 94
[23] = test system: Xanthomonas campestris pv. Vesicatoria 2133-2
[24] = test system: Bacillus anthracis UM23-CL2
[25] = test system: Burkholderia cepacia J2540
[26] = test system: Staphylococcus aureus LAC
[27] = test system: Staphylococcus aureus ATCC 43300
[28] = test system: Pseudomonas aeruginosa PAO1
[29] = test system: Pseudomonas aeruginosa LCCI
[30] = test system: Pseudomonas aeruginosa LC
[31] = test system: Pseudomonas aeruginosa LCCE
[32] = test system: Staphylococcus aureus ATCC 29213
[33] = test system: Pseudomonas aeruginosa ATCC 21630
[34] = test system: Pseudomonas aeruginosa ATCC 10419
[35] = test system: Pseudomonas aeruginosa LCGE
[36] = test system: Salmonella enterica subsp. enterica serovar Typhimurium C77-31
[37] = test system: Pseudomonas aeruginosa ATCC 21625

Compound: CC(C)[C@H](NC(=O)CNC(=O)[C@@H](N)CC(N)=O)C(=O)N[C@@H](CCC(N)=O)C(=O)N1CCC[C@H]1C(=O)N[C@@H](CCCCN)C(=O)N[C@@H](Cc1ccc(O)cc1)C(=O)N[C@@H](CCCN=C(N)N)C(=O)N[C@@H](Cc1c[nH]c2ccccc12)C(=O)N[C@@H](Cc1c[nH]c2ccccc12)C(=O)N[C@@H](CCCN=C(N)N)C(=O)N[C@@H](Cc1c[nH]c2ccccc12)C(=O)N[C@@H](Cc1c[nH]c2ccccc12)C(=O)N[C@@H](CCCN=C(N)N)C(=O)N[C@@H](CCCN=C(N)N)C(=O)N[C@@H](Cc1c[nH]c2ccccc12)C(=O)N[C@@H](Cc1c[nH]c2ccccc12)C(=O)O [NGVQPKYRWWRWWRRWW]
MIC [1]: 18.1 µM (≈ 46 µg/mL)
MIC [2]: 9.03 µM (≈ 23 µg/mL)
MIC [3]: ≥ 35.7 µM
MIC [4]: > 35.7 µM

Compound: CC[C@H](C)[C@H](NC(=O)[C@H](Cc1cnc[nH]1)NC(=O)[C@H](CO)NC(=O)[C@@H](N)CCC(N)=O)C(=O)N[C@@H](CO)C(=O)N[C@@H](CC(C)C)C(=O)N[C@H]1CSSC[C@@H](C(=O)N[C@@H](CCCCN)C(=O)N[C@@H](Cc2ccccc2)C(=O)O)NC(=O)[C@@H]2CSSC[C@H](NC(=O)[C@H](Cc3c[nH]c4ccccc34)NC(=O)[C@H](CCCN=C(N)N)NC1=O)C(=O)N[C@H]1CSSC[C@H](NC(=O)CNC(=O)[C@H](CCCCN)NC(=O)[C@H](CC(N)=O)NC(=O)[C@H](C)NC(=O)[C@H](CCCCN)NC(=O)[C@@H]3CSSC[C@H](NC(=O)[C@H](CC(N)=O)NC1=O)C(=O)N3)C(=O)NCC(=O)N[C@@H](Cc1ccccc1)C(=O)N2 [QSHISLCRWCCNCCKANKGCGFCCKF]
MIC [17]: 1.41 µM (≈ 4.15 µg/mL)
MIC [18]: 2.83 µM (≈ 8.3 µg/mL)
MIC [19]: 5.66 µM (≈ 16.6 µg/mL)
MIC [20]: 2.83 µM (≈ 8.3 µg/mL)

Compound: CC[C@H](C)[C@H](NC(=O)[C@H](CCCCN)NC(=O)[C@H](CCCCN)NC(=O)[C@H](Cc1ccccc1)NC(=O)[C@H](CC(C)C)NC(=O)[C@H](CCCCN)NC(=O)[C@H](Cc1c[nH]c2ccccc12)NC(=O)[C@@H](N)CCCCN)C(=O)N[C@@H](C)C(=O)N[C@@H](CCCCN)C(=O)N[C@@H](CCCCN)C(=O)N[C@@H](Cc1ccccc1)C(=O)N[C@@H](C)C(=O)N[C@@H](CCCCN)C(=O)N[C@@H](C)C(=O)N[C@@H](Cc1ccccc1)C(=O)N[C@H](C(=O)N[C@@H](C)C(=O)N[C@@H](CCC(=O)O)C(=O)N[C@H](C(=O)N[C@@H](CCSC)C(=O)O)[C@@H](C)CC)C(C)C [KWKLFKKIAKKFAKAFVAEIM]
MIC [24]: 24.7 µM and ≥ 49.5 µM
MIC [25]: 12.4 µM (≈ 31.3 µg/mL)

Compound: NC(N)=NCCC[C@H](NC(=O)[C@H](CCCN=C(N)N)NC(=O)[C@H](CCCN=C(N)N)NC(=O)[C@@H](N)CCCN=C(N)N)C(=O)N[C@@H](Cc1c[nH]c2ccccc12)C(=O)N[C@@H](Cc1c[nH]c2ccccc12)C(=O)N[C@@H](Cc1c[nH]c2ccccc12)C(=O)N[C@@H](Cc1c[nH]c2ccccc12)C(=O)O [RRRRWWWW]
MIC [1]: 46.1 µM (≈ 64 µg/mL)
MIC [26]: 23.1 µM (≈ 32 µg/mL)
MIC [27]: 31.3 µM (≈ 43.4 µg/mL)
MIC [28]: 15.6 µM (≈ 21.7 µg/mL)

Compound: CC[C@H](C)[C@H](NC(=O)[C@H](CCCCN)NC(=O)[C@H](CCCCN)NC(=O)[C@H](CC(C)C)NC(=O)[C@H](CCCN=C(N)N)NC(=O)[C@H](CCCCN)NC(=O)[C@H](CCCN=C(N)N)NC(=O)[C@@H](NC(=O)[C@H](CCCCN)NC(=O)[C@H](CCCCN)NC(=O)[C@H](CCCN=C(N)N)NC(=O)[C@H](CC(C)C)NC(=O)[C@H](CCCN=C(N)N)NC(=O)[C@H](CCCN=C(N)N)NC(=O)[C@H](Cc1ccccc1)NC(=O)[C@@H](N)CCCN=C(N)N)[C@@H](C)CC)C(N)=O [RFRRLRKKIRKRLKKI]
MIC [29]: ≥ 256 µM
MIC [30]: ≥ 64 µM
MIC [31]: ≥ 256 µM
MIC [1]: 128 µM (≈ 281 µg/mL)
MIC [2]: 32 µM (≈ 70.2 µg/mL)
MIC [32]: 256 µM (≈ 562 µg/mL)
MIC [33]: ≥ 256 µM
MIC [34]: ≥ 256 µM
MIC [11]: 256 µM (≈ 562 µg/mL)
MIC [35]: ≥ 256 µM
MIC [36]: ≥ 256 µM
MIC [37]: ≥ 256 µM

Second part, the compound after the results:

MIC [1]: 9.5 µM (≈ 11.1 µg/mL)
MIC [5]: 9.5 µM (≈ 11.1 µg/mL)
MIC [6]: 25.6 µM (≈ 30 µg/mL)
MIC [7]: 5.97 µM (≈ 6.99 µg/mL)
MIC [8]: 9.5 µM (≈ 11.1 µg/mL)
MIC [9]: ≥ 256 µM
MIC [10]: 9.5 µM (≈ 11.1 µg/mL)
MIC [11]: 28.4 µM (≈ 33.3 µg/mL)
MIC [12]: ≥ 34.1 µM
Compound: CC[C@H](C)[C@H](NC(=O)[C@H](Cc1ccccc1)NC(=O)[C@H](CCCCN)NC(=O)[C@H](CC(C)C)NC(=O)[C@H](CC(C)C)NC(=O)CN)C(=O)N[C@@H](CCCCN)C(=O)N[C@@H](CCCCN)C(=O)N[C@@H](CC(C)C)C(=O)N[C@@H](CC(C)C)C(N)=O [GLLKFIKKLL]

MIC [13]: 25 µM (≈ 53.7 µg/mL)
MIC [14]: ≥ 50 µM
Compound: CC[C@H](C)[C@H](NC(=O)[C@H](CCC(=O)O)NC(=O)[C@H](C)NC(=O)[C@H](Cc1ccccc1)NC(=O)[C@@H](N)CC(N)=O)C(=O)N[C@@H](Cc1ccccc1)C(=O)N[C@@H](C)C(=O)N[C@@H](C)C(=O)N[C@H](C(=O)N[C@@H](CC(N)=O)C(=O)N[C@@H](CCCCN)C(=O)N[C@@H](CC(C)C)C(=O)N[C@H](C(=O)N[C@@H](CCCCN)C(=O)N[C@@H](CCC(N)=O)C(=O)NCC(=O)N[C@H](C(=O)N[C@H](C(=O)N[C@@H](CCCCN)C(=O)NCC(=O)O)C(C)C)C(C)C)[C@@H](C)CC)C(C)C [NFAEIFAAVNKLIKQGVVKG]

MIC [1]: 10.8 µM (≈ 15 µg/mL)
MIC [15]: 18 µM (≈ 25 µg/mL)
MIC [4]: 7.2 µM (≈ 9.99 µg/mL)
MIC [11]: 18 µM (≈ 25 µg/mL)
MIC [16]: 14.4 µM (≈ 20 µg/mL)
Compound: CC(C)C[C@H](NC(=O)[C@@H](NC(=O)[C@H](CCC(N)=O)NC(=O)[C@H](CCCCN)NC(=O)[C@H](Cc1cnc[nH]1)NC(=O)[C@H](CC(C)C)NC(=O)[C@H](C)NC(=O)[C@@H](NC(=O)[C@H](CC(C)C)NC(=O)[C@H](CCCCN)NC(=O)[C@H](CC(C)C)NC(=O)[C@@H](N)CCCCN)C(C)C)C(C)C)C(N)=O [KLKLVALHKQVL]

MIC [21]: 14.1 µM (≈ 24.3 µg/mL)
MIC [22]: 14.1 µM (≈ 24.3 µg/mL)
MIC [23]: 3.54 µM (≈ 6.07 µg/mL)
Compound: CC[C@H](C)[C@H](NC(=O)[C@H](CCCCN)NC(=O)[C@H](CCCCN)NC(=O)[C@H](Cc1ccccc1)NC(=O)[C@H](CC(C)C)NC(=O)[C@H](CCCCN)NC(=O)[C@@H](N)CCCCN)C(=O)N[C@@H](CC(C)C)C(=O)N[C@@H](CCCCN)C(=O)N[C@@H](Cc1ccc(O)cc1)C(=O)N[C@@H](CC(C)C)C(=O)N[C@@H](C)C(=O)NCC(=O)N1CCC[C@H]1C(=O)N[C@@H](C)C(=O)O [KKLFKKILKYLAGPA]
